A short description of series [1]: pKa of the alkanolamines (Table 1). Format: physicochemical.
The next series in a line: Boiling point (Table 1). Format: physicochemical.

Turning to `NCCOCCO` [DGA, 2-aminoethoxyethanol], the pKa (usually the negative logarithm of the acid dissociation constant) in series [1] was 9.4. In the series “Boiling point (Table 1)”, this molecule returned a Boiling point of 221 ° F. In the series “Boiling point (Table 1)”, `OCCNCCO` [DEA, diethanolamine] came in with a Boiling point of 268 ° F. Same read-out and setting: next, `CN(C)C(CO)(CO)CO` [DMTA, 2-dimethylamino-2-hydroxymethyl-1,3-propanediol]: 335 ° F.

These data come from patent publication US10286356B2, “Process for the removal of acid gases from gaseous mixtures using an aqueous solution of 2-dimethylamino-2-hydroxymethyl-1, 3-propanediol” (Dow Global Technologies LLC, priority 2014, dated 2019).
